Assay results reported in PubChem BioAssay (NCI).
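Exposure lasted 48 hours, with cells grown in 96-well plates and compounds tested at five concentrations. TGI: total growth inhibition.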

Experiments:
Assay in all cases: NCI-60 cell line screen, 48 h
EKVX NSCLC = test system: EKVX NSCLC
COLO 205 colon = test system: COLO 205 colon
SF-539 CNS = test system: SF-539 CNS
IGROV1 ovarian = test system: IGROV1 ovarian
A498 renal = test system: A498 renal
K-562 leukemia = test system: K-562 leukemia
DLD-1 colon = test system: DLD-1 colon
SNB-19 CNS = test system: SNB-19 CNS
KM12 colon = test system: KM12 colon
NCI-H522 lung = test system: NCI-H522 lung
HOP-62 NSCLC = test system: HOP-62 NSCLC
SNB-78 CNS = test system: SNB-78 CNS
UACC-257 melanoma = test system: UACC-257 melanoma
LXFL 529 NSCLC = test system: LXFL 529 NSCLC
786-0 renal = test system: 786-0 renal
OVCAR-3 ovarian = test system: OVCAR-3 ovarian
HL-60(TB) leukemia = test system: HL-60(TB) leukemia
MALME-3M melanoma = test system: MALME-3M melanoma
SR leukemia = test system: SR leukemia
HT29 colon = test system: HT29 colon
NCI-H226 lung = test system: NCI-H226 lung
SF-295 CNS = test system: SF-295 CNS
U251 CNS = test system: U251 CNS
CCRF-CEM leukemia = test system: CCRF-CEM leukemia
RPMI-8226 leukemia = test system: RPMI-8226 leukemia
HCT-116 colon = test system: HCT-116 colon
OVCAR-5 ovarian = test system: OVCAR-5 ovarian
KM20L2 colon = test system: KM20L2 colon
SN12C renal = test system: SN12C renal
LOX IMVI melanoma = test system: LOX IMVI melanoma
XF 498 CNS = test system: XF 498 CNS
HCT-15 colon = test system: HCT-15 colon
NCI-H23 lung = test system: NCI-H23 lung
HOP-92 NSCLC = test system: HOP-92 NSCLC
DMS 273 small cell lung = test system: DMS 273 small cell lung
RXF 393 renal = test system: RXF 393 renal
SNB-75 CNS = test system: SNB-75 CNS
DMS 114 small cell lung = test system: DMS 114 small cell lung
M14 melanoma = test system: M14 melanoma
TK-10 renal = test system: TK-10 renal
MOLT-4 leukemia = test system: MOLT-4 leukemia
UACC-62 melanoma = test system: UACC-62 melanoma
CAKI-1 renal = test system: CAKI-1 renal
UO-31 renal = test system: UO-31 renal
SW-620 colon = test system: SW-620 colon
NCI-H460 lung = test system: NCI-H460 lung
SF-268 CNS = test system: SF-268 CNS
OVCAR-4 ovarian = test system: OVCAR-4 ovarian
SK-MEL-5 melanoma = test system: SK-MEL-5 melanoma
SK-OV-3 ovarian = test system: SK-OV-3 ovarian
OVCAR-8 ovarian = test system: OVCAR-8 ovarian
A549 NSCLC = test system: A549 NSCLC
HCC-2998 colon = test system: HCC-2998 colon
M19-MEL melanoma = test system: M19-MEL melanoma
SK-MEL-28 melanoma = test system: SK-MEL-28 melanoma
SK-MEL-2 melanoma = test system: SK-MEL-2 melanoma
ACHN renal = test system: ACHN renal
HOP-18 NSCLC = test system: HOP-18 NSCLC
PC-3 prostate = test system: PC-3 prostate
MDA-N = test system: MDA-N
MCF7 breast = test system: MCF7 breast
T-47D breast = test system: T-47D breast
HS 578T breast = test system: HS 578T breast
DU-145 prostate = test system: DU-145 prostate
MDA-MB-435 = test system: MDA-MB-435
NCI/ADR-RES ovarian = test system: NCI/ADR-RES ovarian
MDA-MB-231 breast = test system: MDA-MB-231 breast

## O=C(OCCOCCOC(=O)c1c[nH]cc1-c1ccccc1)c1c[nH]cc1-c1ccccc1
EKVX NSCLC
  TGI: 69.9 µM
COLO 205 colon
  TGI: 35.6 µM
SF-539 CNS
  TGI: 32.5 µM
IGROV1 ovarian
  TGI: 42.5 µM
A498 renal
  TGI: 53.1 µM
K-562 leukemia
  TGI: > 100 µM
DLD-1 colon
  TGI: 71.4 µM
SNB-19 CNS
  TGI: 69.9 µM
KM12 colon
  TGI: 44.7 µM
NCI-H522 lung
  TGI: 29.6 µM
HOP-62 NSCLC
  TGI: 31.7 µM
SNB-78 CNS
  TGI: 68.7 µM
UACC-257 melanoma
  TGI: 33.1 µM
LXFL 529 NSCLC
  TGI: 69.2 µM
786-0 renal
  TGI: 73.1 µM
OVCAR-3 ovarian
  TGI: 50 µM
HL-60(TB) leukemia
  TGI: 55.1 µM
MALME-3M melanoma
  TGI: 55.2 µM
SR leukemia
  TGI: 55.6 µM
HT29 colon
  TGI: 35.2 µM
NCI-H226 lung
  TGI: 48.9 µM
SF-295 CNS
  TGI: 35.7 µM
U251 CNS
  TGI: 36.7 µM
CCRF-CEM leukemia
  TGI: > 100 µM
RPMI-8226 leukemia
  TGI: 56.9 µM
HCT-116 colon
  TGI: 31.6 µM
OVCAR-5 ovarian
  TGI: 62.2 µM
KM20L2 colon
  TGI: 46 µM
SN12C renal
  TGI: 42.1 µM
LOX IMVI melanoma
  TGI: 30.2 µM
XF 498 CNS
  TGI: 34.4 µM
HCT-15 colon
  TGI: 38.5 µM
NCI-H23 lung
  TGI: 33.7 µM
HOP-92 NSCLC
  TGI: 47.8 µM
DMS 273 small cell lung
  TGI: 30.6 µM
RXF 393 renal
  TGI: 35.6 µM
SNB-75 CNS
  TGI: 36.7 µM
DMS 114 small cell lung
  TGI: 32.5 µM
M14 melanoma
  TGI: 28.2 µM
TK-10 renal
  TGI: 80.1 µM
MOLT-4 leukemia
  TGI: 49.1 µM
UACC-62 melanoma
  TGI: 31 µM
CAKI-1 renal
  TGI: 83.1 µM
UO-31 renal
  TGI: 31.4 µM
SW-620 colon
  TGI: 76.5 µM
NCI-H460 lung
  TGI: 46.9 µM
SF-268 CNS
  TGI: 40 µM
OVCAR-4 ovarian
  TGI: 49.7 µM
SK-MEL-5 melanoma
  TGI: 30.5 µM
SK-OV-3 ovarian
  TGI: 84.4 µM
OVCAR-8 ovarian
  TGI: 84.7 µM
A549 NSCLC
  TGI: 66.4 µM
HCC-2998 colon
  TGI: 42.4 µM
M19-MEL melanoma
  TGI: 34 µM

## Cc1ccccc1NC(=O)c1[nH]c(=S)nc(N)c1-c1ccccc1C
EKVX NSCLC
  TGI: > 100 µM
COLO 205 colon
  TGI: > 100 µM
SF-539 CNS
  TGI: > 100 µM
IGROV1 ovarian
  TGI: > 100 µM
A498 renal
  TGI: > 100 µM
K-562 leukemia
  TGI: > 100 µM
DLD-1 colon
  TGI: > 100 µM
SNB-19 CNS
  TGI: > 100 µM
KM12 colon
  TGI: > 100 µM
NCI-H522 lung
  TGI: > 100 µM
HOP-62 NSCLC
  TGI: > 100 µM
SNB-78 CNS
  TGI: > 100 µM
UACC-257 melanoma
  TGI: > 100 µM
LXFL 529 NSCLC
  TGI: > 100 µM
786-0 renal
  TGI: > 100 µM
SK-MEL-28 melanoma
  TGI: > 100 µM
OVCAR-3 ovarian
  TGI: > 100 µM
HL-60(TB) leukemia
  TGI: > 100 µM
MALME-3M melanoma
  TGI: > 100 µM
SR leukemia
  TGI: > 100 µM
HT29 colon
  TGI: > 100 µM
NCI-H226 lung
  TGI: > 100 µM
SF-295 CNS
  TGI: > 100 µM
U251 CNS
  TGI: > 100 µM
CCRF-CEM leukemia
  TGI: > 100 µM
RPMI-8226 leukemia
  TGI: > 100 µM
HCT-116 colon
  TGI: > 100 µM
OVCAR-5 ovarian
  TGI: > 100 µM
KM20L2 colon
  TGI: > 100 µM
SN12C renal
  TGI: > 100 µM
LOX IMVI melanoma
  TGI: > 100 µM
SK-MEL-2 melanoma
  TGI: > 100 µM
HCT-15 colon
  TGI: > 100 µM
NCI-H23 lung
  TGI: > 100 µM
HOP-92 NSCLC
  TGI: > 100 µM
DMS 273 small cell lung
  TGI: > 100 µM
RXF 393 renal
  TGI: > 100 µM
SNB-75 CNS
  TGI: 76.1 µM
DMS 114 small cell lung
  TGI: > 100 µM
M14 melanoma
  TGI: > 100 µM
TK-10 renal
  TGI: > 100 µM
MOLT-4 leukemia
  TGI: > 100 µM
UACC-62 melanoma
  TGI: > 100 µM
CAKI-1 renal
  TGI: > 100 µM
UO-31 renal
  TGI: > 100 µM
SW-620 colon
  TGI: > 100 µM
NCI-H460 lung
  TGI: > 100 µM
SF-268 CNS
  TGI: > 100 µM
ACHN renal
  TGI: > 100 µM
OVCAR-4 ovarian
  TGI: > 100 µM
SK-MEL-5 melanoma
  TGI: > 100 µM
SK-OV-3 ovarian
  TGI: > 100 µM
OVCAR-8 ovarian
  TGI: > 100 µM
HOP-18 NSCLC
  TGI: > 100 µM
A549 NSCLC
  TGI: > 100 µM
HCC-2998 colon
  TGI: > 100 µM
M19-MEL melanoma
  TGI: > 100 µM

## CC1(c2cccc(C3CCC4(C=CC3=O)OCCO4)c2)OCCO1 (stereo unspecified)
EKVX NSCLC
  TGI: 37.5 µM
COLO 205 colon
  TGI: 18.6 µM
SF-539 CNS
  TGI: 28.5 µM
IGROV1 ovarian
  TGI: 32.7 µM
A498 renal
  TGI: 33.5 µM
K-562 leukemia
  TGI: 25.1 µM
DLD-1 colon
  TGI: 11 µM
SNB-19 CNS
  TGI: > 45.9 µM
KM12 colon
  TGI: 33.4 µM
NCI-H522 lung
  TGI: 3.53 µM
HOP-62 NSCLC
  TGI: 47.9 µM
SNB-78 CNS
  TGI: 48.7 µM
UACC-257 melanoma
  TGI: 21.5 µM
LXFL 529 NSCLC
  TGI: 3.97 µM
786-0 renal
  TGI: 11 µM
PC-3 prostate
  TGI: 31.1 µM
SK-MEL-28 melanoma
  TGI: 29.6 µM
MDA-N
  TGI: 25.2 µM
OVCAR-3 ovarian
  TGI: 13 µM
HL-60(TB) leukemia
  TGI: 20 µM
MALME-3M melanoma
  TGI: 10.9 µM
SR leukemia
  TGI: 12.5 µM
HT29 colon
  TGI: 25.8 µM
NCI-H226 lung
  TGI: 49.2 µM
SF-295 CNS
  TGI: > 56.7 µM
MCF7 breast
  TGI: 25.9 µM
U251 CNS
  TGI: 33.8 µM
CCRF-CEM leukemia
  TGI: 10.5 µM
RPMI-8226 leukemia
  TGI: 28.9 µM
HCT-116 colon
  TGI: 13.2 µM
OVCAR-5 ovarian
  TGI: 32.2 µM
KM20L2 colon
  TGI: 16.8 µM
T-47D breast
  TGI: 23.5 µM
SN12C renal
  TGI: 27.7 µM
LOX IMVI melanoma
  TGI: 27.8 µM
HS 578T breast
  TGI: 41.8 µM
SK-MEL-2 melanoma
  TGI: 27.4 µM
HCT-15 colon
  TGI: 14.7 µM
NCI-H23 lung
  TGI: 24 µM
HOP-92 NSCLC
  TGI: 17.8 µM
DMS 273 small cell lung
  TGI: 22.9 µM
RXF 393 renal
  TGI: 11.5 µM
DU-145 prostate
  TGI: 31.8 µM
SNB-75 CNS
  TGI: 30.3 µM
DMS 114 small cell lung
  TGI: 3.68 µM
M14 melanoma
  TGI: 20.1 µM
TK-10 renal
  TGI: 20.3 µM
MOLT-4 leukemia
  TGI: 12 µM
UACC-62 melanoma
  TGI: 18.1 µM
MDA-MB-435
  TGI: 26.1 µM
CAKI-1 renal
  TGI: 21.1 µM
NCI/ADR-RES ovarian
  TGI: 31.5 µM
MDA-MB-231 breast
  TGI: 26 µM
UO-31 renal
  TGI: 12.7 µM
SW-620 colon
  TGI: 8.07 µM
NCI-H460 lung
  TGI: 30.6 µM
SF-268 CNS
  TGI: 36 µM
ACHN renal
  TGI: 15.5 µM
OVCAR-4 ovarian
  TGI: 18.1 µM
SK-MEL-5 melanoma
  TGI: 28 µM
SK-OV-3 ovarian
  TGI: > 67.5 µM
OVCAR-8 ovarian
  TGI: 30.9 µM
A549 NSCLC
  TGI: 34 µM
HCC-2998 colon
  TGI: 33.1 µM
M19-MEL melanoma
  TGI: 25.8 µM
